Assay results published in patent publication US20090176817A1, “Method of Treatment of Diarrhea-Predominant Irritable Bowel Syndrome in a Subject” (priority 2005, published 2009).
Read-outs that look alike come from different tables or passages of the source.

How the values were obtained:
[1] = clinical; conditions: human, in vivo, po
Protocol: Two randomized, double-blind, placebo controlled, rising dose, crossover studies evaluated the single-dose pharmacokinetics of oral cilansetron over a 4 mg to 64 mg dose range. In one study, 24 male subjects (aged 21-36 years) received, at intervals of […], single oral doses of 4, 8, and 16 mg cilansetron in ascending order and a randomized placebo. In the other study, 24 male subjects received, at intervals of ≧1 week, single oral doses of 16, 32, and 64 mg cilansetron in ascending order and a randomized placebo. All doses were administered under fasted conditions. […] Renal excretion of cilansetron was negligible across all doses, with undetectable or very low amounts (<1% of the dose) excreted unchanged in urine.
Data for the evaluation of dose proportionality of oral cilansetron is available from three studies which have evaluated the pharmacokinetics of single doses over a 2 mg to 64 mg dose range. Two randomized, double-blind, placebo controlled, rising dose, crossover studies, in 24 male subjects each, evaluated the single dose pharmacokinetics of oral cilansetron (capsules) over a 4-16 mg and 16-64 mg dose range, respectively. In each study, subjects received, at intervals of ≧1 week, single oral doses of cilansetron in ascending order and a randomized placebo. All doses were administered under fasted conditions. A third open-label, randomized, parallel-group study in 36 male and female subjects, evaluated the single dose pharmacokinetics of a cilansetron 2 mg tablet administered under fed conditions. FIG. 16 to FIG. 19 present box plots of cilansetron AUC(0-inf) and Cmax from these three studies (males only), and corresponding dose-normalized values (normalized to a 1 mg dose). […] Table 2.7.2.3.14 presents descriptive statistics of cilansetron dose-normalized AUC and Cmax in these studies, and the results of statistical comparisons between doses.

[2] = tested on: diarrhea-predominant IBS subjects; assay type: in vivo, human; parameters: key to Daily stool consistency score, mean change from Baseline at end of treatment / Mean stool consistency score at end of treatment / Stool consistency, mean change from rerandomization Baseline: stool consistency on a seven-point daily diary scale
From the text: Studies S24 1.3.OO6, S24 1.3.0 1 1, and S24 1.3.009 used the following efficacy measurements: • The subjects answered the following three questions with “yes” or “no” using a phone diary at the end of each week: • a) During the last week, did you experience adequate relief of your IBS symptoms, such as abdominal pain, abdominal discomfort, abnormal bowel habits? • b) During the last week, did you experience adequate relief of your abdominal pain and/or discomfort? • c) During the last week, did you experience adequate relief of your abnormal bowel habits? • The subjects rated the following symptoms using the phone diary at the end of each day: • abdominal pain/discomfort (five-point scale); • stool consistency (seven-point Bristol Stool Scale); • stool frequency (number of bowel movements each day); • urgency (five-point scale); • straining (yes or no); • feeling of incomplete defecation (yes or no); • bloating or feeling of abdominal distension (five-point scale). • In Studies S241 A006 and S241.3.009, subjects completed the IBS-QOL Survey at Baseline (Day 1) and at the end of treatment. In Study S24 1.3.0 1 1, subjects completed the IBS-QOL Survey at Baseline (Day 1), at the end of the three-month treatment period, and at the end of rerandomized treatment.
Other secondary efficacy parameters for all three studies included: • Responder rate for the weekly diary questions on adequate relief at each month, where a responder for a month (monthly responder) was defined as a subject who answered the weekly question with “yes” at least twice for that month. The responder rate was the percentage of responders within a treatment group. The all-month responder rate for the weekly diary questions on adequate relief was also evaluated, where an all-month responder was defined as a subject who answered the weekly question with “yes” at least twice for each month. The all-month responder rate was the percentage of all-month responders within a treatment group; • Adequate relief rate for the weekly diary questions was calculated for each subject as the number of weekly assessments with adequate relief (“yes”) divided by the total number of weekly assessments; • Percentage of subjects with adequate relief for the weekly diary questions at each week; • Daily diary questions regarding abdominal pain/discomfort (five-point scale), stool consistency (seven-point scale), stool frequency (number of bowel movements each day), straining (yes or no), urgency (five-point scale), feeling of incomplete evacuation (yes or no), and bloating or feeling of abdominal distention (five-point scale); • QOL data assessed by the IBS-QOL questionnaire; and • Question to determine the interruption of activities.

[3] = both, human, in vivo
Protocol: Two randomized, double-blind, placebo controlled, balanced incomplete block design, crossover studies evaluated the single- and multiple-dose pharmacokinetics of oral cilansetron over a 8 mg to 32 mg dose range. In both studies, subjects were randomized to receive two of three treatments during 2 treatment periods. In one study (12 male and 13 female subjects, aged 23 to 36 years), subjects received 8 mg cilansetron, 16 mg cilansetron, or placebo, while in another study (12 males and 13 females, aged 23 to 41 years), subjects received 16 mg cilansetron, 32 mg cilansetron, or placebo. During each treatment period, subjects received a single dose of their assigned treatment on the first day, followed by a 3-day washout, after which they received the same treatment TID for 5 days.
There was a 5-6 day washout period between treatment periods. Doses on the mornings of pharmacokinetic days were administered under fasted conditions. Serial blood sampling and urine collection was performed up to 12 hours following morning dosing on the first day (single dose) and on the last multiple dosing day of each treatment period, and cilansetron pharmacokinetic parameters were evaluated.
In two randomized, double-blind, placebo controlled, balanced incomplete block design, crossover studies evaluating the single- and multiple-dose pharmacokinetics of oral cilansetron over a 8 mg to 32 mg dose range, subjects were randomized to receive two of three treatments during 2 treatment periods. In Study S.241.1.101; (12 male and 13 female subjects, aged 23 to 36 years), subjects received 8 mg cilansetron, 16 mg cilansetron, or placebo, while in Study S.24 1.1.102; (12 males and 13 females, aged 23 to 41 years), subjects received 16 mg cilansetron, 32 mg cilansetron, or placebo. During each treatment period, subjects received a single dose of their assigned treatment on the first day, followed by a 3-day washout, after which they received the same treatment TID for 5 days. There was a 5-6 day washout period between treatment periods. Doses on the mornings of pharmacokinetic days were administered under fasted conditions. Serial blood sampling and urine collection was performed up to 12 hours following morning dosing on the first day (single dose) and on the last multiple dosing day of each treatment period, and cilansetron pharmacokinetic parameters were evaluated.

[4] = tested on: CYP2C19; conditions: hepatocytes

Cc1nccn1C[C@H]1CCc2c(c3cccc4c3n2CCC4)C1=O [Cilansetron, (R)-(−)-4,5,6,8,9,10-hexahydro-10-[(2-methyl-1H-imidazol-1-yl)methyl]-11H-pyrido-[3,2,1-jk]-carbazol-11-one]
CL/F ([1]; 4 mg): 3864 (69) mL/min
CL/F ([1]; 8 mg): 3851 (103) mL/min
DN-AUC(0-inf) ratio 8 mg/4 mg ([1]; male): 109%
DN-AUC(0-inf) ratio 16 mg/4 mg ([1]; male): 117%
DN-AUC(0-inf) ratio 16 mg/8 mg ([1]; male): 108%
DN-AUC(0-last) ratio 8 mg/4 mg ([1]; male): 120%
DN-AUC(0-last) ratio 16 mg/4 mg ([1]; male): 132%
DN-AUC(0-last) ratio 16 mg/8 mg ([1]; male): 110%
DN-Cmax ratio 8 mg/4 mg ([1]; male): 115%
DN-Cmax ratio 16 mg/4 mg ([1]; male): 122%
DN-Cmax ratio 16 mg/8 mg ([1]; male): 107%
Dose excreted unchanged in urine ([1]; male): < 1%
Tmax ([1]; male): 1 to 1.25 h
half-life ([1]; male): 1.2 to 1.6 h
AUC(0-inf) ([1]; male, 4 mg): 26.7 ng·h/mL
AUC(0-t) ([1]; male, 4 mg): 23.2 ng·h/mL
Cmax ([1]; male, 4 mg): 9.88 ng/mL
Tmax ([1]; male, 4 mg): 1.25 h
Vd/F ([1]; male, 4 mg): 522 L
half-life ([1]; male, 4 mg): 1.56 h
AUC(0-inf) ([1]; male, 8 mg): 59.4 ng·h/mL
AUC(0-t) ([1]; male, 8 mg): 55.5 ng·h/mL
Cmax ([1]; male, 8 mg): 22.1 ng/mL
Tmax ([1]; male, 8 mg): 1 h
Vd/F ([1]; male, 8 mg): 472 L
half-life ([1]; male, 8 mg): 1.47 h
Tmax ([1]; male, 16 mg): 1 h
Mean number of stools per day at end of treatment ([2]; 2 mg TID): 2.41 stools per day
Abdominal pain/discomfort, mean change from rerandomization Baseline ([2]; C/C): −0.09
Bloating, mean change from rerandomization Baseline ([2]; C/C): −0.05
Incomplete evacuation, mean change from Rerandomization Baseline ([2]; C/C): 0.01
Stool consistency, mean change from rerandomization Baseline ([2]; C/C): −0.09
Stools per day, mean change from rerandomization Baseline ([2]; C/C): −0.02
Urgency, mean change from rerandomization Baseline ([2]; C/C): −0.05
Abdominal pain/discomfort, mean change from rerandomization Baseline ([2]; C/P): 0.16
Bloating, mean change from rerandomization Baseline ([2]; C/P): 0.16
Incomplete evacuation, mean change from Rerandomization Baseline ([2]; C/P): 0.05
Stool consistency, mean change from rerandomization Baseline ([2]; C/P): 0.55
Stools per day, mean change from rerandomization Baseline ([2]; C/P): 0.22
Urgency, mean change from rerandomization Baseline ([2]; C/P): 0.25
Abdominal pain/discomfort, mean change from rerandomization Baseline ([2]; P/C): −0.08
Bloating, mean change from rerandomization Baseline ([2]; P/C): −0.03
Incomplete evacuation, mean change from Rerandomization Baseline ([2]; P/C): −0.02
Stool consistency, mean change from rerandomization Baseline ([2]; P/C): −0.84
Stools per day, mean change from rerandomization Baseline ([2]; P/C): −0.31
Urgency, mean change from rerandomization Baseline ([2]; P/C): −0.27
Median rate of urgency-free days ([2]; end of treatment): 0.25
Median rate of pain-free days ([2]; end of treatment (last two weeks)): 0.15
Bloating or abdominal distention score, mean change from Baseline at end of treatment ([2]; in vivo): −0.43
Daily abdominal pain/discomfort score, mean change from Baseline at end of treatment ([2]; in vivo): −0.69
Daily stool consistency score, mean change from Baseline at end of treatment ([2]; in vivo): −1.02
Daily urgency score, mean change from Baseline at end of treatment ([2]; in vivo): −0.78
Feeling of incomplete evacuation, mean change from Baseline at end of treatment ([2]; in vivo): −0.20
Mean stool consistency score at end of treatment ([2]; in vivo): 4.28
Mean straining, mean change from Baseline at end of treatment ([2]; in vivo): 0.05
Stools per day, mean change from Baseline at end of treatment ([2]; in vivo): −0.91
Median rate of pain-free days ([2]; three-month period): 0.22
Median rate of urgency-free days ([2]; three-month period): 0.31
Dose excreted unchanged in urine [3]: less than 1%
Intrasubject % CV [3]: 23-51%
Mean AUC(0-τ) (multiple dose) to AUC(0-inf) (single dose) ratios [3]: 81-94%
AUC Ratio (90% CI) ([3]; 8 mg): 84 (46, 154) %
Cmax Ratio (90% CI) ([3]; 8 mg): 82 (42, 160) %
DN-AUC ([3]; 8 mg): 14.0 (49) ng · h/mL
AUC Ratio (90% CI) ([3]; 16 mg): 58 (32, 103) %
Cmax Ratio (90% CI) ([3]; 16 mg): 54 (29, 103) %
AUC Ratio (90% CI) ([3]; po, 8 mg): 81 (46, 145) %
Cmax Ratio (90% CI) ([3]; po, 8 mg): 77 (46, 128) %
AUC Ratio (90% CI) ([3]; po, 16 mg): 82 (47, 142) %
Cmax Ratio (90% CI) ([3]; po, 16 mg): 79 (49, 130) %
Increase of CYP2C19 [4]: about half of that caused by phenobarbital
